Experimental data from ChEMBL document CHEMBL3046884, “Optical Resolution and Biological Activities of S-23121, a New Cereal Herbicide” (Agric Biol Chem, 1991).

Test system: Cucumis sativus
Assay: Induction of membrane damage in Cucumis sativus (cucumber) cotyledon disks assessed as compound level causing […] ethane production incubated under white light for 24 hr at 20 degC
Format: functional

C#C[C@@H](C)Oc1cc(N2C(=O)C3=C(CCCC3)C2=O)c(F)cc1Cl
Activity: 178 nM

C#C[C@H](C)Oc1cc(N2C(=O)C3=C(CCCC3)C2=O)c(F)cc1Cl [(S)-S-23121]
Activity: 21 nM
